Experimental findings from ChEMBL document CHEMBL5543066, “Dual COX-2/15-LOX inhibitors: A new avenue in the prevention of cancer” (Eur J Med Chem, 2023) are described below.

A short description of assay [1]: Inhibition of soybean lipoxygenase. Also noted: species or system Glycine max.
In assay [2] the target is T1, Prostaglandin G/H synthase 2 (Homo sapiens, UniProt P35354).
T1 sequence (P35354 whole entry): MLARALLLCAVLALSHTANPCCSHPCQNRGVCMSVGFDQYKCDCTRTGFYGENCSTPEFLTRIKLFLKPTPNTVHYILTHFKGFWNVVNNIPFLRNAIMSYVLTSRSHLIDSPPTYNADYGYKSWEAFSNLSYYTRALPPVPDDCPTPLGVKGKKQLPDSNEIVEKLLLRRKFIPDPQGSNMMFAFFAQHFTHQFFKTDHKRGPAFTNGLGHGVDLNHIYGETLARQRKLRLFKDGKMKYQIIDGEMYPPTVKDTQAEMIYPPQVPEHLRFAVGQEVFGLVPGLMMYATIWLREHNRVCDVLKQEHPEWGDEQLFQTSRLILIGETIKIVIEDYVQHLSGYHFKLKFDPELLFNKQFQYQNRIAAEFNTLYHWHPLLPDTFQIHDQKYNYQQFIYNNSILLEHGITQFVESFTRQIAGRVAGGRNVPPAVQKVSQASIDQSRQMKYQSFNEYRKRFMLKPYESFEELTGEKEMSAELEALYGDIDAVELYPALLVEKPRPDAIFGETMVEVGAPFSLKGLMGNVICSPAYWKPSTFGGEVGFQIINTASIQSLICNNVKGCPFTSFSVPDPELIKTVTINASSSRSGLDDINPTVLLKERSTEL
Put plainly: Inhibition of human COX-2.

In assay [3] the target is T2, Prostaglandin G/H synthase 1 (Ovis aries, UniProt P05979).
T2 sequence (P05979 whole entry): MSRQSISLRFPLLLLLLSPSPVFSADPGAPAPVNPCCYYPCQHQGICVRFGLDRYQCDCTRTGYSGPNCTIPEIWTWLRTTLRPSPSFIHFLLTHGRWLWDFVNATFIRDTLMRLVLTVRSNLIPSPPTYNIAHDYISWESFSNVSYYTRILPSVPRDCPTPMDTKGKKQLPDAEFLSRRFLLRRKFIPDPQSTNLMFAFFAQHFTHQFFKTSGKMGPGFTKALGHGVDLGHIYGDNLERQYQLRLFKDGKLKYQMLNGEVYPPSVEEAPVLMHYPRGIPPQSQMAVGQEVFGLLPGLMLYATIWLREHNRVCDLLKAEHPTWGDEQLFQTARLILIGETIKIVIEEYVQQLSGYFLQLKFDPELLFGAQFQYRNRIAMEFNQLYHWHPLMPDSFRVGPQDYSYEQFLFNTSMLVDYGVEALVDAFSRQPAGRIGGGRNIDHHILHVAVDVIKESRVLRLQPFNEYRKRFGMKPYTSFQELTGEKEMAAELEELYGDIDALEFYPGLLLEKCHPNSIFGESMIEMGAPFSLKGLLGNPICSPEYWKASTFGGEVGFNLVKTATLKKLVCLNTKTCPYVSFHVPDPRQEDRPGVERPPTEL
The assay can be described thus: Inhibition of ovine COX-1.

Assay [4] deals with T3, Polyunsaturated fatty acid 5-lipoxygenase (Homo sapiens, UniProt P09917).
T3 sequence (P09917 whole entry): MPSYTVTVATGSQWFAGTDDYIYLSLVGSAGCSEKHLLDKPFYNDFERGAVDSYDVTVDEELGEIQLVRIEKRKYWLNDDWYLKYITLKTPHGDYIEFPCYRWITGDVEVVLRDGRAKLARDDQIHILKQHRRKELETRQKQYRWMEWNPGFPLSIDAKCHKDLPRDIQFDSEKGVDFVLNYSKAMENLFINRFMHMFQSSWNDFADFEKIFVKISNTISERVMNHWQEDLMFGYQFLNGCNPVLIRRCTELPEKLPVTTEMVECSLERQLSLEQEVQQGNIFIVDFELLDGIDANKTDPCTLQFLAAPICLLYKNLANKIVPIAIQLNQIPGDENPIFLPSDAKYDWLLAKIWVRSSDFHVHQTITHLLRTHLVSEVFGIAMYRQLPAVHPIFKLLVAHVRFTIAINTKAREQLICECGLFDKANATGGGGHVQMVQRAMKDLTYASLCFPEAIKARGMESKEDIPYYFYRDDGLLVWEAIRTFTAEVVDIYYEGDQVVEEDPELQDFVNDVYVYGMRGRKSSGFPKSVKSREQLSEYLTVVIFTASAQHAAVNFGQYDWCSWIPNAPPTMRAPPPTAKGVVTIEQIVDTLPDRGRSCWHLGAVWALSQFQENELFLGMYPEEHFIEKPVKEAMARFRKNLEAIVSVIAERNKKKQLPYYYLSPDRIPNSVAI
The assay can be described thus: Inhibition of 5-LOX in human PMNL cells. The format is cell-based.

Assay [5] in a line: Selectivity ratio of IC50 for ovine COX-1 to IC50 for human COX-2.
The target of a further assay is Carbonic anhydrase 2 (Homo sapiens, UniProt P00918). The assay can be described thus: Inhibition of recombinant human carbonic anhydrase II incubated for 30 mins by spectrophotometric analysis.
Assay [6] concerns Rattus norvegicus. Put plainly: Anti-inflammatory activity against carrageenan-induced paw edema in Wistar albino rat assessed as inhibition of paw edema. It is filed as functional.
For assay [7], the system named is RAW264.7. The assay can be described thus: Anti-inflammatory activity against mouse RAW264.7 cells assessed as inhibition of LPS-induced IL-6 production at 10 uM pre-incubated with LPS-stimulation for 2 hrs followed by compound addition and measured after 22 hrs by ELISA analysis relative to control. The format is functional. Also noted: scale not given: the % may be the effect or the level left. The note with it: time 24 hrs. A general note: An ELISA detects its analyte on a solid surface through an enzyme-linked reagent.

The nature of assay [8]: Inhibition of human recombinant sPLA2-V.
Assay [9] has as its system Rattus norvegicus. The assay can be described thus: Anti-inflammatory activity against carrageenan-induced paw edema in Wistar albino rat assessed as inhibition of paw edema at 50 mg/kg, sc administered for 14 days relative to control. The following applies: time 14 day. It is filed as functional. The arrangement: scale not given: the % may be the effect or the level left. (Carrageenan injected into the paw causes an acute inflammation.)

Assay [10] concerns RAW264.7. The assay can be described thus: Anti-inflammatory activity against mouse RAW264.7 cells assessed as inhibition of LPS-induced TNF-alpha production at 10 uM pre-incubated with LPS-stimulation for 2 hrs followed by compound addition and measured after 22 hrs by ELISA analysis relative to control. The format is functional. Also noted: scale not given: the % may be the effect or the level left. The following applies: time 24 hrs.

In assay [11] the target is T1, Prostaglandin G/H synthase 2. The assay can be described thus: Inhibition of COX-2 (unknown origin) by Enzyme immune assay.

The IC50 is the concentration that gives 50% inhibition. As for `O=C1c2ccccc2C(=O)N1c1nc2cc([N+](=O)[O-])ccc2n1Cc1cccc(-c2ccccc2)c1`, the IC50 turned out to be 1020 nM in assay [1], 1000 nM in assay [2], 9850 nM in assay [3] and 320 nM in assay [4]. For the same compound, the Ratio IC50 in assay [5] was found to be 9.85.
On to `NS(=O)(=O)c1ccc(NCCC(=O)N/N=C/c2ccc(-c3ccc(Br)s3)cc2)cc1`, for which the IC50 at Carbonic anhydrase 2 was 110 nM.
What is called ED50 is the dose at which the effect has come halfway, by size or by number of responders. Take `COc1ccnc(Nc2nn3c(SC)c(C#N)c(O)nc3c2C#N)c1`: in the assay with Rattus norvegicus [6], the ED50 amounted to 35 mg/kg. For the same compound, the Activity in the assay on RAW264.7 [7] was found to be 80%; with Rattus norvegicus [9], 46%; with RAW264.7 [10], 89%. The IC50 in assay [8] was 1000 nM; in [11] it was 1110 nM.
